Experiments:
[1] = system: mice; assay: In vivo delivery of FLuc-mRNA lipid nanoparticles in mice, in vivo imaging (IVIS); conditions: for in vivo delivery efficiency as compared to the benchmark compound SM102: certain formulations, Table 2
In short: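 Mice (n=3) received about 75 μL FLuc-mRNA LNP per mouse intramuscularly (rectus femoris), intravenously (tail vein), intraperitoneally or subcutaneously (back). After injection, D-luciferin (200 μL, 15 mg/mL) was given i.p. 10-15 min before IVIS imaging.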

[2] = Particle size and PDI of nucleic acid lipid nanoparticle preparations by dynamic light scattering; type: physicochemical
Procedure: The 7.5 μL nucleic acid lipid nanoparticle solution (containing approximately 0.04 mg/mL mRNA) was taken and added with 200 μL ultrapure water, mixed by gentle blowing using a pipette tip, and the particle size of the nanopreparation was detected by dynamic lightscattering (DLS) using a Malvern Dynamic Light Scattering Instrument (Malvern Instruments Ltd., ZEN3700, UK).
27.5 μL nucleic acid lipid nanoparticle solution (containing about 0.04 mg/mL mRNA) was taken and added with 200 μL ultrapure water. A pipette tip was used to gently blow the sample and mix well. The particle size of the nanopreparation was detected by Malvern Dynamic Light Scattering Instrument (Malvern Instruments Ltd., ZEN3700, UK). After the detection, the sample was recovered to an EP tube, and 600 μL of ultrapure water was added, gently blown with a pipette tip, and the potential of the nanopreparation was measured by a Malvern particle size meter.

[3] = IM, DMG-PEG2000:DSPC:Chol:compound 1.40:11.15:38.95:48.50, N/P 20, Fluc-mRNA
[4] = IV, organ not given, DMG-PEG2000:DSPC:Chol:compound 1.40:11.15:38.95:48.50, N/P 20, Fluc-mRNA
[5] = DMG-PEG2000:DSPC:Chol:compound 1.40:11.15:38.95:48.50, N/P 20
[6] = IM, DMG-PEG2000:DSPC:Chol:compound 1.40:11.15:38.95:48.50, N/P 30, Fluc-mRNA
[7] = DMG-PEG2000:DSPC:Chol:compound 1.40:11.15:38.95:48.50, N/P 30
[8] = IV, body, DMG-PEG2000:DSPC:Chol:compound 1.40:11.15:38.95:48.50, N/P 20, Fluc-mRNA
[9] = IV, liver, DMG-PEG2000:DSPC:Chol:compound 1.40:11.15:38.95:48.50, N/P 20
[10] = IV, liver, DMG-PEG2000:DSPC:Chol:compound 1.40:11.15:38.95:48.50, N/P 20, Fluc-mRNA
[11] = IV, lung, DMG-PEG2000:DSPC:Chol:compound 1.40:11.15:38.95:48.50, N/P 20
[12] = IV, lung, DMG-PEG2000:DSPC:Chol:compound 1.40:11.15:38.95:48.50, N/P 20, Fluc-mRNA
[13] = IV, spleen, DMG-PEG2000:DSPC:Chol:compound 1.40:11.15:38.95:48.50, N/P 20
[14] = IV, spleen, DMG-PEG2000:DSPC:Chol:compound 1.40:11.15:38.95:48.50, N/P 20, Fluc-mRNA
[15] = DMG-PEG2000:DSPC:Chol:compound 1.40:11.15:38.95:48.50, N/P 40
[16] = DMG-PEG2000:DSPC:Chol:Lipid 1.40:11.15:38.95:48.50, N/P 30, mRNA LNP
[17] = DMG-PEG2000:DSPC:Chol:Lipid 1.40:11.15:38.95:48.50, N/P 48, mRNA LNP
[18] = DMG-PEG2000:DSPC:Chol:Lipid 1.77:14.07:49.16:35.00, N/P 48, mRNA LNP
[19] = DMG-PEG2000:DSPC:Chol:Lipid 1.40:11.15:38.95:48.50, N/P 16.7, mRNA LNP

CCCCCCCCCCNC(=O)C(O)CN(CCOCCOCCN(CC(O)C(=O)NCCCCCCCCCC)CC(O)C(=O)NCCCCCCCCCC)CC(O)C(=O)NCCCCCCCCCC (stereo not drawn) [Compound L0325]
IVIS [1, 3]: 5.09E+06
IVIS [1, 4]: 1.95E+07
PDI [2, 5]: 0.12
Particle size (nm) [2, 5]: 94.88 nm

CCCCCCCCCCCCNC(=O)C(O)CN(C)CCCN(C)CCCN(C)CC(O)C(=O)NCCCCCCCCCCCC (stereo not drawn) [Compound L0311]
IVIS [1, 6]: 2.23E+05
IVIS ([1]; IV, organ not given, DMG-PEG2000:DSPC:Chol:compound 1.40:11.15:38.95:48.50, N/P 30, Fluc-mRNA): 4.57E+05
PDI [2, 7]: 0.16
Particle size (nm) [2, 7]: 111.00 nm

CCCCCCCCCCCCNC(=O)C(O)CN(CCOCCOCCN(CC(O)C(=O)NCCCCCCCCCCCC)CC(O)C(=O)NCCCCCCCCCCCC)CC(O)C(=O)NCCCCCCCCCCCC (stereo not drawn) [Compound L0305]
IVIS [1, 3]: 4.39E+04
IVIS [1, 8]: 8.12E+06
% of organ targeting [1, 9]: 35.21%
IVIS [1, 10]: 2.14E+06
% of organ targeting [1, 11]: 1.65%
IVIS [1, 12]: 1.00E+05
% of organ targeting [1, 13]: 63.14%
IVIS [1, 14]: 3.84E+06
PDI [2, 5]: 0.18
Particle size (nm) [2, 5]: 109.93 nm

CCCCCCOCOCCCCCCOC(=O)C(O)CN(CCOCCN(CC(O)C(=O)OCCCCCCOCOCCCCCC)CC(O)C(=O)OCCCCCCOCOCCCCCC)CC(O)C(=O)OCCCCCCOCOCCCCCC (stereo not drawn) [Compound L0330]
IVIS [1, 3]: 1.35E+06
IVIS [1, 8]: 2.05E+06
% of organ targeting [1, 9]: 29.70%
IVIS [1, 10]: 2.90E+05
% of organ targeting [1, 11]: 4.48%
IVIS [1, 12]: 4.37E+04
% of organ targeting [1, 13]: 65.82%
IVIS [1, 14]: 6.43E+05
PDI [2, 5]: 0.10
Particle size (nm) [2, 5]: 145.77 nm

CCCCCCCCCCCCNCC(O)CN(CCCNC(=O)CCN(CCCN(CCC(=O)NCCCN(CC(O)C(=O)NCCCCCCCCCCCC)CC(O)C(=O)NCCCCCCCCCCCC)CCC(=O)NCCCN(CC(O)C(=O)NCCCCCCCCCCCC)CC(O)C(=O)NCCCCCCCCCCCC)CCC(=O)NCCCN(CC(O)C(=O)NCCCCCCCCCCCC)CC(O)C(=O)NCCCCCCCCCCCC)CC(O)C(=O)NCCCCCCCCCCCC (stereo not drawn) [Compound L0328]
IVIS ([1]; IM, DMG-PEG2000:DSPC:Chol:compound 1.40:11.15:38.95:48.50, N/P 40, Fluc-mRNA): 9.40E+05
IVIS ([1]; IV, body, DMG-PEG2000:DSPC:Chol:compound 1.40:11.15:38.95:48.50, N/P 40, Fluc-mRNA): 3.55E+07
% of organ targeting ([1]; IV, liver, DMG-PEG2000:DSPC:Chol:compound 1.40:11.15:38.95:48.50, N/P 40): 51.92%
IVIS ([1]; IV, liver, DMG-PEG2000:DSPC:Chol:compound 1.40:11.15:38.95:48.50, N/P 40, Fluc-mRNA): 5.62E+06
% of organ targeting ([1]; IV, lung, DMG-PEG2000:DSPC:Chol:compound 1.40:11.15:38.95:48.50, N/P 40): 1.56%
IVIS ([1]; IV, lung, DMG-PEG2000:DSPC:Chol:compound 1.40:11.15:38.95:48.50, N/P 40, Fluc-mRNA): 1.69E+05
% of organ targeting ([1]; IV, spleen, DMG-PEG2000:DSPC:Chol:compound 1.40:11.15:38.95:48.50, N/P 40): 46.52%
IVIS ([1]; IV, spleen, DMG-PEG2000:DSPC:Chol:compound 1.40:11.15:38.95:48.50, N/P 40, Fluc-mRNA): 5.04E+06
PDI [2, 15]: 0.11
Particle size (nm) [2, 15]: 150.47 nm

CCCCCCOCOCCCCCCOC(=O)C(O)CN(C)CCN(C)CCN(C)CC(O)C(=O)OCCCCCCOCOCCCCCC (stereo not drawn) [Compound L0279]
IVIS ([1]; DMG-PEG2000:DSPC:Chol:Lipid 1.40:11.15:38.95:48.50, N/P 30, IM, whole body scan): 2.87 × 10^5
IVIS ([1]; DMG-PEG2000:DSPC:Chol:Lipid 1.40:11.15:38.95:48.50, N/P 30, IV, body (whole body scan)): 5.19 × 10^5
PDI [2, 16]: 0.23 ± 0.02
Particle size [2, 16]: 150.80 ± 1.97 nm

CCCCCCCCC(CCCCCC)C(=O)OCCCCOC(=O)C(O)CN(CCN(C)CCN(CC(O)C(=O)OCCCCOC(=O)C(CCCCCC)CCCCCCCC)CC(O)C(=O)OCCCCOC(=O)C(CCCCCC)CCCCCCCC)CC(O)C(=O)OCCCCOC(=O)C(CCCCCC)CCCCCCCC (stereo not drawn) [Compound L0298]
IVIS [1, 6]: 5.25E+07
IVIS ([1]; IV, body, DMG-PEG2000:DSPC:Chol:compound 1.40:11.15:38.95:48.50, N/P 30, Fluc-mRNA): 1.30E+08
% of organ targeting ([1]; IV, liver, DMG-PEG2000:DSPC:Chol:compound 1.40:11.15:38.95:48.50, N/P 30): 39.52%
IVIS ([1]; IV, liver, DMG-PEG2000:DSPC:Chol:compound 1.40:11.15:38.95:48.50, N/P 30, Fluc-mRNA): 3.03E+07
% of organ targeting ([1]; IV, lung, DMG-PEG2000:DSPC:Chol:compound 1.40:11.15:38.95:48.50, N/P 30): 5.53%
IVIS ([1]; IV, lung, DMG-PEG2000:DSPC:Chol:compound 1.40:11.15:38.95:48.50, N/P 30, Fluc-mRNA): 4.23E+06
% of organ targeting ([1]; IV, spleen, DMG-PEG2000:DSPC:Chol:compound 1.40:11.15:38.95:48.50, N/P 30): 54.95%
IVIS ([1]; IV, spleen, DMG-PEG2000:DSPC:Chol:compound 1.40:11.15:38.95:48.50, N/P 30, Fluc-mRNA): 4.21E+07
PDI [2, 7]: 0.11
Particle size (nm) [2, 7]: 91.43 nm

CCCCCCOCOCCCCCCOC(=O)C(O)CN(CCCN(CC(O)C(=O)OCCCCCCOCOCCCCCC)CC(O)C(=O)OCCCCCCOCOCCCCCC)CCCN(CC(O)C(=O)OCCCCCCOCOCCCCCC)CC(O)C(=O)OCCCCCCOCOCCCCCC (stereo not drawn) [Compound L0270]
IVIS ([1]; DMG-PEG2000:DSPC:Chol:Lipid 1.40:11.15:38.95:48.50, N/P 48, IM, whole body scan): 2.09 × 10^7
IVIS ([1]; DMG-PEG2000:DSPC:Chol:Lipid 1.40:11.15:38.95:48.50, N/P 48, IV, whole body scan): 1.56 × 10^9
IVIS ([1]; DMG-PEG2000:DSPC:Chol:Lipid 1.77:14.07:49.16:35.00, N/P 48, IH, whole body scan): 2.89 × 10^6
in vivo delivery efficiency as compared to the benchmark compound SM102 [1]: superior in vivo delivery efficiency
PDI [2, 17]: 0.12 ± 0.00
Particle size [2, 17]: 131.00 ± 1.32 nm
PDI [2, 18]: 0.10 ± 0.03
Particle size [2, 18]: 144.83 ± 1.39 nm

CCCCCCOCOCCCCCCOC(=O)C(O)CN(CCN(C)CCN(CC(O)C(=O)OCCCCCCOCOCCCCCC)CC(O)C(=O)OCCCCCCOCOCCCCCC)CC(O)C(=O)OCCCCCCOCOCCCCCC (stereo not drawn) [Compound L0272]
IVIS ([1]; DMG-PEG2000:DSPC:Chol:Lipid 1.40:11.15:38.95:48.50, N/P 16.7, IM, whole body scan): 9.96 × 10^7
IVIS ([1]; DMG-PEG2000:DSPC:Chol:Lipid 1.40:11.15:38.95:48.50, N/P 16.7, IV, whole body scan): 9.45 × 10^8
in vivo delivery efficiency as compared to the benchmark compound SM102 [1]: superior in vivo delivery efficiency
PDI [2, 19]: 0.09 ± 0.02
Particle size [2, 19]: 137.20 ± 0.61 nm

CCCCCCCCCCCCOC(=O)C(O)CN(CCOCCN(CC(O)C(=O)OCCCCCCCCCCCC)CC(O)C(=O)OCCCCCCCCCCCC)CC(O)C(=O)OCCCCCCCCCCCC (stereo not drawn) [Compound L0312]
IVIS [1, 3]: 9.71E+05
IVIS [1, 4]: 5.52E+05
PDI [2, 5]: 0.12
Particle size (nm) [2, 5]: 172.73 nm
